# Test results: patent publication US20190175598A1, “COMBINATION THERAPIES FOR THE TREATMENT OF HEPATOCELLULAR CARCINOMA” (Eisai R&D Management Co., Ltd., priority 2016, published 2019)
# Assays:
# [1] = test system: human hepatocellular cancer cell line JHH7 xenograft; assay: JHH7 xenograft model of hepatocellular carcinoma, antitumor activity; type: in vivo, mice; conditions: PO QD 8 days
# Method: The cell line used, JHH7, was sourced from Japanese Collection of Research Bioresources Cell Bank (JCRB), verified free of mycobacterium contamination and verified for identity by short tandem repeat analysis of 9 markers.
# JHH7 cells were maintained in William's E Medium (Thermo Fisher Scientific, 12551-032) with 10% fetal bovine serum. Cells were maintained prior to and during experiments at 37° C. 5% CO2, and at 95% relative humidity. Cell passage number was limited to between 12 and 20.
# The human hepatocellular cancer cell line JHH7 was cultured in William's E Medium (Thermo Fisher Scientific, 12551-032) containing 10% fetal bovine serum at 37° C. in a 5% CO2 atmosphere and kept in exponential growth phase. For harvesting, the cells were washed with phosphate buffered saline, incubated with 0.25% trypsin-EDTA, and suspended in a 1:1 mixture of William's E Medium and Matrigel (Corning) at a final concentration of 5×10^7 cells/mL. To generate xenografts, 0.1-mL of the inoculum was injected subcutaneously into the right flank region of NU/NU immuno compromised 6-8 week old female mice, giving a final concentration of 5×10^6 cells/mouse. When the mean tumor volume (TV) reached approximately 170 mm^3 (10 days after implantation), 144 mice were selected based on their TVs, and were sorted into 18 treatment groups with 8 animals per group. Per os (PO) treatment with Compound 1 (300 and 500 mg/kg) alone or in combination with vehicle (control) or palbociclib (50 and 100 mg/kg) or ribociclib (75 and 150 mg/kg) administered once daily (QD) continued for 8 days. The administration volume (0.1 mL/10 g body weight) was calculated from the individual mouse body weight (BW) before administration. Body weights were measured daily and tumor measurements were performed twice weekly.
# (§1) where Day X is any day of measurement
# (§2) The anti-tumor effects of the treatment, Partial (PR) and complete regression (CR), stable (SD) and progressive (PD) disease were defined by the Xenograft Model Response Criteria (see below). Mice with >20% body weight loss compared to their Day 1 body weight or bearing tumors with the longest diameter […] were immediately euthanized to prevent any pain or suffering in the animal as according to IACUC guidelines.
# Data are expressed as the mean±SEM for Tumor Volume (TV). The differences in TV between groups were analyzed by two way ANOVA followed by Sidak post hoc test. Statistical analyses were performed using the GraphPad Prism version 6 (GraphPad Software, La Jolla, Calif.).
# Progressive disease (PD): 3 consecutive measurements >120% of starting volume or 3 consecutive increasing measurements from best response, Stable disease (SD): 3 consecutive measurements >50% and <120% of starting volume, Partial regression (PR): 3 consecutive measurements <50% of starting volume, Complete regression (CR): 3 consecutive measurements <30 mm^3.
# [2] = test system: human primary hepatocellular carcinoma model LIX066; assay: LIX066 patient derived xenograft model of hepatocellular carcinoma, antitumor activity; type: in vivo, mice; conditions: Example 3, oral daily 17 days
# Method: The human primary hepatocellular carcinoma model LIX066 model from ChemPartner (shangpharma.com) were implanted into the female severe combined immunodeficiency (SCID) mice. When the tumors developed in mice, the mice were sacrificed and the tumors were resected and implanted into female nude mice for tumor preservation, histopathology diagnosis and in vivo efficacy study. Solid tumor tissues were depleted of necrotic components, cut into 10-15 mg pieces, and mixed. Three to five pieces were mixed with […] Matrigel and implanted into a flank of 6-8-week-old female NU/NU immune compromised mice weighing 18-20 g nude mice. 30 mice with average tumor volume of 160 mm^3 selected and randomized into 6 groups of 5 mice each. All of the primary human tumors utilized in this study had undergone 3-5 passages in vivo and the tumor histology of each was maintained over the serial transplantation process. Per os (PO) treatment with Compound 1 (300 and 500 mg/kg) alone or in combination with vehicle (control) or palbociclib (100 mg/kg) administered once daily (QD) continued for 17 days. The administration volume (0.1 mL/10 g body weight) was calculated from the individual mouse body weight (BW) before administration. Body weights were measured daily and tumor measurements were performed twice weekly.
# as §1, §2
# Data are expressed as the mean±SEM for Tumor Volume (TV). The differences in TV between groups were analyzed by two way ANOVA followed by Sidak post hoc test. Statistical analyses were performed using the GraphPad Prism version 6 (GraphPad Software, La Jolla, Calif.). […]
smiles,measurement,setting,value
"C=CC(=O)Nc1cc(N2CCN(CC)CC2)ccc1Nc1cc(N(C)C(=O)Nc2c(Cl)c(OC)cc(OC)c2Cl)ncn1 [Compound 1, N-(2-((6-(3-(2,6-dichloro-3,5-dimethoxyphenyl)-1-methylureido)pyrimidin-4-yl)amino)-5-(4-ethylpiperazin-1-yl)phenyl)acrylamide]",Tumor Growth Inhibition % (TGI),"[1]; Example 1, Compound 1 300 mg/kg single agent, vs vehicle controls",14%
same,Tumor Growth Inhibition % (TGI),"[1]; Example 1, Compound 1 500 mg/kg single agent, vs vehicle controls",35%
same,Tumor Growth Inhibition % (TGI),"[1]; Example 2, Compound 1 300 mg/kg single agent, vs vehicle controls (P≤0.01)",12%
same,Tumor Growth Inhibition % (TGI),"[1]; Example 2, Compound 1 500 mg/kg single agent, vs vehicle controls (P≤0.0001)",32%
same,Tumor Growth Inhibition % (TGI),"[2]; Compound 1 300 mg/kg single agent, vs vehicle controls (P≤0.0001)",59%
same,Tumor Growth Inhibition % (TGI),"[2]; Compound 1 500 mg/kg single agent, vs vehicle controls (P≤0.0001)",70%
"CN(C)C(=O)c1cc2cnc(Nc3ccc(N4CCNCC4)cn3)nc2n1C1CCCC1 [Ribociclib, 7-Cyclopentyl-2-(5-piperazin-1-yl-pyridin-2-ylamino)-7H-pyrrolo[2,3-d]pyrimidine-6-carboxylic acid dimethylamide, reference compound]",Tumor Growth Inhibition % (TGI),"[1]; Example 1, ribociclib 75 mg/kg single agent, vs vehicle controls (not significant)",13%
same,Tumor Growth Inhibition % (TGI),"[1]; Example 1, ribociclib 150 mg/kg single agent, vs vehicle controls (P≤0.0001)",23%
"CC(=O)c1c(C)c2cnc(Nc3ccc(N4CCNCC4)cn3)nc2n(C2CCCC2)c1=O [Palbociclib, 6-acetyl-8-cyclopentyl-5-methyl-2-{[5-(piperazin-1-yl)pyridin-2-yl]amino}pyrido[2,3-d]pyrimidin-7(8H)-one, reference compound]",Tumor Growth Inhibition % (TGI),"[1]; Example 2, palbociclib 50 mg/kg single agent, vs vehicle controls (not significant)",11%
same,Tumor Growth Inhibition % (TGI),"[1]; Example 2, palbociclib 100 mg/kg single agent, vs vehicle controls (P≤0.05)",26%
same,Tumor Growth Inhibition % (TGI),"[2]; palbociclib 100 mg/kg single agent, vs vehicle controls (P≤0.001)",62%
